Source: ChEMBL document CHEMBL5370544, “Design, synthesis, and biological evaluation of 1-styrenyl isoquinoline derivatives for anti-hepatocellular carcinoma activity and effect on mitochondria” (Eur J Med Chem, 2023)
Calls of active or inactive are those of the source.

Columns and labels:
Huh-7 [1] = assay: Induction of apoptosis in human Huh-7 cells assessed as formation of apoptotic bodies at 0.9 to 8.1 uM incubated for 24 hrs by giemsa staining based micrscopic analysis; type: functional, cell-based; details: dose 0.9-8.1 µM
Huh-7 [2] = assay: Induction of apoptosis in human Huh-7 cells assessed as genomic DNA fragmentation at 0.9 to 8.1 uM incubated for 24 hrs by giemsa staining based micrscopic analysis; type: functional, cell-based; details: dose 0.9-8.1 µM
SK-HEP1 [3] = assay: Inhibition of cell migration in human SK-HEP1 cells incubated for 24 hrs by scratch wound healing assay; type: functional, cell-based; details: dose 1.25-5 µM
Huh-7 [4] = assay: Antiproliferative activity against human Huh-7 cells assessed as reduction in ratio of EdU-positive cells measured after 24 hrs by EdU incorporation assay; type: functional, cell-based; details: dose 0.55-2.2 µM
Huh-7 [5] = assay: Induction of apoptosis in human Huh-7 cells assessed as nuclear membrane breakdown at 0.9 to 8.1 uM incubated for 24 hrs by giemsa staining based micrscopic analysis; type: functional, cell-based; details: dose 0.9-8.1 µM
SK-HEP1 [6] = assay: Inhibition of colony formation in human SK-HEP1 cells assessed as reduction in number of cell colonies at 1.25 to 5 uM measured after 10 and 14 days by crystal violet staining based light microscopic analysis; type: functional; details: dose 1.25-5 µM, time 14.0 day
[7] = Acute toxicity in BALB/c mouse assessed as change in body weight at 650 mg/kg, ip measured after 14 days; type: organism-based; details: in vivo, 336 h, time 14 day
Huh-7 [8] = assay: Inhibition of PI3K signalling pathway in human Huh-7 cells assessed as inhibition of PI3K phosphorylation at 0.9 to 8.1 uM measured after 48 hrs by Western blotting analysis; type: cell-based; details: dose 0.9-8.1 µM
Huh-7 [9] = assay: Induction of apoptosis in human Huh-7 cells assessed as inhibition of caspase-9 expression incubated for 48 hrs by Western blotting analysis; type: functional, cell-based; details: dose 0.9-8.1 µM
[10] = target: Serine/threonine-protein kinase mTOR (Homo sapiens) (UniProt P42345); assay: Inhibition of mTOR signalling pathway in human Huh-7 cells assessed as inhibition of mTOR phosphorylation at 0.9 to 8.1 uM measured after 48 hrs by Western blotting analysis; type: cell-based; details: dose 0.9-8.1 µM
SK-HEP1 [11] = assay: Induction of apoptosis in human SK-HEP1 cells assessed as increase in Bax expression at 1.5 to 13.5 uM incubated for 48 hrs by Western blotting analysis; type: functional, cell-based; details: dose 1.5-13.5 µM
Huh-7 [12] = assay: Antitumor activity against human Huh-7 cells xenografted in BALB/c mouse assessed as tumor growth inhibition at 15 mg/kg, ip qd measured after 14 days; type: functional; details: Huh-7, 336 h, time 14 day, read-out: TGI
Huh-7 [13] = assay: Antitumor activity against human Huh-7 cells xenografted in ip dosed BALB/c mouse assessed as reduction in tumor weight measured after 14 days; type: functional, organism-based; details: dose 15-30 mg/kg, time 14.0 day
Huh-7 [14] = assay: Induction of apoptosis in human Huh-7 cells assessed as increase in cleaved caspase-9 expression at 0.9 to 8.1 uM incubated for 48 hrs by Western blotting analysis; type: functional, cell-based; details: dose 0.9-8.1 µM
SK-HEP1 [15] = assay: Induction of apoptosis in human SK-HEP1 cells assessed as increase in proportion of late apoptosis at 1.5 to 13.5 uM incubated for 24 hrs by Annexin V-AbFluor 488/propidium iodide staining based flow cytometry analysis; type: functional, cell-based; details: dose 1.5-13.5 µM
Huh-7 [16] = assay: Antiproliferative activity against human Huh-7 cells assessed as inhibition of cell growth measured after 72 hrs by MTT assay; type: functional, cell-based
Huh-7 [17] = assay: Antiinvasive activity in human Huh-7 cells assessed as reduction in number of invasive cells at 0.55 to 2.2 uM incubated for 24 hrs by transwell invasion assay; type: functional, cell-based; details: dose 0.55-2.2 µM
SK-HEP1 [18] = assay: Induction of apoptosis in human SK-HEP1 cells assessed as genomic DNA fragmentation at 1.5 to 13.5 uM incubated for 24 hrs by giemsa staining based micrscopic analysis; type: functional, cell-based; details: dose 1.5-13.5 µM
Huh-7 [19] = assay: Antitumor activity against human Huh-7 cells xenografted in BALB/c mouse assessed as tumor growth inhibition at 30 mg/kg, ip qd measured after 14 days; type: functional; details: Huh-7, 336 h, time 14 day, read-out: TGI
SK-HEP1 [20] = assay: Antiproliferative activity against human SK-HEP1 cells assessed as inhibition of cell growth measured after 72 hrs by MTT assay; type: functional, cell-based
SK-HEP1 [21] = assay: Induction of apoptosis in human SK-HEP1 cells assessed as inhibition of caspase-9 expression incubated for 48 hrs by Western blotting analysis; type: functional, cell-based; details: dose 1.5-13.5 µM
SK-HEP1 [22] = assay: Induction of apoptosis in human SK-HEP1 cells assessed as increase in cleaved caspase-9 expression at 1.5 to 13.5 uM incubated for 48 hrs by Western blotting analysis; type: functional, cell-based; details: dose 1.5-13.5 µM
HepG2 = assay: Antiproliferative activity against human HepG2 cells assessed as inhibition of cell growth measured after 72 hrs by MTT assay; type: functional, cell-based; details: HepG2, 72 h
SK-HEP1 [23] = assay: Induction of apoptosis in human SK-HEP1 cells assessed as formation of apoptotic bodies at 1.5 to 13.5 uM incubated for 24 hrs by giemsa staining based micrscopic analysis; type: functional, cell-based; details: dose 1.5-13.5 µM
SK-HEP1 [24] = assay: Induction of apoptosis in human SK-HEP1 cells assessed as inhibition of caspase-3 expression incubated for 48 hrs by Western blotting analysis; type: functional, cell-based; details: dose 1.5-13.5 µM
Huh-7 [25] = assay: Induction of apoptosis in human Huh-7 cells assessed as inhibition of Bcl-2 expression incubated for 48 hrs by Western blotting analysis; type: functional, cell-based; details: dose 0.9-8.1 µM
Huh-7 [26] = assay: Induction of apoptosis in human Huh-7 cells assessed as increase in cytochrome-C expression at 0.9 to 8.1 uM incubated for 48 hrs by Western blotting analysis; type: functional, cell-based; details: dose 0.9-8.1 µM
SK-HEP1 [27] = assay: Antiproliferative activity against human SK-HEP1 cells assessed as inhibition of cell growth upto 2 uM by MTT assay; type: functional, cell-based; details: time 72.0 hrs, TDE = time-dependent effect
Huh-7 [28] = assay: Antiproliferative activity against human Huh-7 cells assessed as inhibition of cell growth upto 2 uM by MTT assay; type: functional, cell-based; details: time 72.0 hrs, TDE = time-dependent effect
SK-HEP1 [29] = assay: Induction of apoptosis in human SK-HEP1 cells assessed as chromatin condensation at 1.5 to 13.5 uM incubated for 24 hrs by giemsa staining based micrscopic analysis; type: functional, cell-based; details: dose 1.5-13.5 µM
SK-HEP1 [30] = assay: Induction of apoptosis in human SK-HEP1 cells assessed as inhibition of Bcl-2 expression incubated for 48 hrs by Western blotting analysis; type: functional, cell-based; details: dose 1.5-13.5 µM
Huh-7 [31] = assay: Induction of cell cycle arrest in human Huh-7 cells assessed as decrease in cyclin A expression incubated for 48 hrs by Western blotting analysis; type: functional, cell-based; details: dose 0.9-8.1 µM
SK-HEP1 [32] = assay: Induction of cell cycle arrest in human SK-HEP1 cells assessed as decrease in cyclin B1 expression incubated for 48 hrs by Western blotting analysis; type: functional, cell-based; details: dose 1.5-13.5 µM
[33] = target: Serine/threonine-protein kinase AKT (Homo sapiens) (UniProt P31751+Q9Y243+P31749); assay: Inhibition of Akt signalling pathway in human SK-HEP1 cells assessed as inhibition of Akt phosphorylation at 1.5 to 13.5 uM measured after 48 hrs by Western blotting analysis; type: cell-based; details: dose 1.5-13.5 µM
Huh-7 [34] = assay: Induction of apoptosis in human Huh-7 cells assessed as increase in proportion of early apoptosis at 0.9 to 8.1 uM incubated for 24 hrs by Annexin V-AbFluor 488/propidium iodide staining based flow cytometry analysis; type: functional, cell-based; details: dose 0.9-8.1 µM
SK-HEP1 [35] = assay: Inhibition of PI3K signalling pathway in human SK-HEP1 cells assessed as inhibition of PI3K phosphorylation at 1.5 to 13.5 uM measured after 48 hrs by Western blotting analysis; type: cell-based; details: dose 1.5-13.5 µM

Sequence of Serine/threonine-protein kinase AKT (Homo sapiens) (P31749 whole entry, looked up): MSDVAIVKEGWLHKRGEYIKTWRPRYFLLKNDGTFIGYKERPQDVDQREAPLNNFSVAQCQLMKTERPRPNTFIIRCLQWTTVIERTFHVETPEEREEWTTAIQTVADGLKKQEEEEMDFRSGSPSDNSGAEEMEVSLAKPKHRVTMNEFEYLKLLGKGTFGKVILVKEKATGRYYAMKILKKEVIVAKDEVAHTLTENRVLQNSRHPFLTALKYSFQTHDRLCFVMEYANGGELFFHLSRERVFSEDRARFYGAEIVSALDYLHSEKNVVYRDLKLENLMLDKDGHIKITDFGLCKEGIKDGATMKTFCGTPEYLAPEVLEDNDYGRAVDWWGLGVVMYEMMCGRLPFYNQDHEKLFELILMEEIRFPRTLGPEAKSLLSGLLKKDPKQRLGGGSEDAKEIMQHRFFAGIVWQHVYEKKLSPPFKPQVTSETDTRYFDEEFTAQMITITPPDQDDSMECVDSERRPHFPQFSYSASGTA
Sequence of Serine/threonine-protein kinase AKT (Homo sapiens) (P31751 whole entry, looked up): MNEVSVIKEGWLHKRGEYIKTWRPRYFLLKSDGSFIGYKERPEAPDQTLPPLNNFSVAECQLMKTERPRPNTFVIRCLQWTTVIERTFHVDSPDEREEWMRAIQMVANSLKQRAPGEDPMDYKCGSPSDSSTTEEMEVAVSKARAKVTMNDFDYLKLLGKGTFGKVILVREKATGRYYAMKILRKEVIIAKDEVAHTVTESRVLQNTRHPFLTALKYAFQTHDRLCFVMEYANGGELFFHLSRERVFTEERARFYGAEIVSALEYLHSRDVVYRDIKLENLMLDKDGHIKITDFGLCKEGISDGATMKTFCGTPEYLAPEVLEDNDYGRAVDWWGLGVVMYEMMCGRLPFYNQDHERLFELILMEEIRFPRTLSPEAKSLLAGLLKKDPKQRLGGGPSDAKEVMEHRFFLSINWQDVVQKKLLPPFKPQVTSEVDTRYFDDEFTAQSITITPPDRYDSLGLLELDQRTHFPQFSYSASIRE
Sequence of Serine/threonine-protein kinase AKT (Homo sapiens) (Q9Y243 whole entry, looked up): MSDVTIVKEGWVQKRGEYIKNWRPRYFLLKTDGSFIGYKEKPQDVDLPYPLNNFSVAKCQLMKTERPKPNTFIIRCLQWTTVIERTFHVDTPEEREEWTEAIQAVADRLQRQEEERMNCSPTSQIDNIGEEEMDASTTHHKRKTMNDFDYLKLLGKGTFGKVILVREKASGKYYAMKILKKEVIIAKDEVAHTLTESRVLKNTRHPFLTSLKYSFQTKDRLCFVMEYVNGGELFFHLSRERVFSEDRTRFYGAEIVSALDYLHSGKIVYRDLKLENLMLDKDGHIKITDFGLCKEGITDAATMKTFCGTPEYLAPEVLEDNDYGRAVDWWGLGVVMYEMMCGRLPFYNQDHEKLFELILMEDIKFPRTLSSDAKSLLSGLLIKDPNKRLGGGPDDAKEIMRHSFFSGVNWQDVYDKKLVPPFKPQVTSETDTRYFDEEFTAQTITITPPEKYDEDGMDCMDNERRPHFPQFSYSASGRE

CC(=O)Oc1ccccc1/C=C/c1nccc2ccccc12
41.4%: inhibition in vivo at 30 mg/kg (Huh-7 [19])
4.2 µM: IC50 (SK-HEP1 [20]; SK-HEP1, 72 h)
27.4%: inhibition in vivo at 15 mg/kg (Huh-7 [12])
Non-Toxic: Activity [7]
9.76 µM: IC50 (HepG2)
active: Activity (Huh-7 [1]) | Activity (Huh-7 [2]) | inhibition (SK-HEP1 [3]) Dose-Dependent Effect | Activity (Huh-7 [4]) Dose-Dependent Effect | Activity (Huh-7 [5]) | inhibition (SK-HEP1 [6]) | inhibition (Huh-7 [8]) | Activity (Huh-7 [9]) Dose-Dependent Effect | Activity [10] | Activity (SK-HEP1 [11]) | Activity (Huh-7 [13]) Dose-Dependent Effect | Activity (Huh-7 [14]) | Activity (SK-HEP1 [15]) | Activity (Huh-7 [16]) Dose-Dependent Effect | Activity (Huh-7 [17]) | Activity (SK-HEP1 [18]) | Activity (SK-HEP1 [20]) Dose-Dependent Effect | Activity (SK-HEP1 [21]) Dose-Dependent Effect | Activity (SK-HEP1 [22]) | Activity (SK-HEP1 [23]) | Activity (SK-HEP1 [24]) Dose-Dependent Effect | Activity (Huh-7 [25]) Dose-Dependent Effect | Activity (Huh-7 [26]) | Activity (SK-HEP1 [27]) Tde | Activity (Huh-7 [28]) Tde | Activity (SK-HEP1 [29]) | Activity (SK-HEP1 [30]) Dose-Dependent Effect | Activity (Huh-7 [31]) Dose-Dependent Effect | Activity (SK-HEP1 [32]) Dose-Dependent Effect | inhibition [33] | Activity (Huh-7 [34]) | inhibition (SK-HEP1 [35])
2.52 µM: IC50 (Huh-7 [16]; Huh-7, 72 h)
